{
  "source": "ChEMBL document CHEMBL3596141",
  "about": "“Isolation and Structure Elucidation of Fujikurins A-D: Products of the PKS19 Gene Cluster in Fusarium fujikuroi” (J Nat Prod, 2015)",
  "system": "HepG2",
  "assay": "Cytotoxicity against human HepG2 cells assessed as cell viability up to 100 uM after 48 hrs by CCK-8 assay",
  "type": "functional, cell-based",
  "note": "Calls of active or inactive are those of the source. The rule behind the calls is not given here.",
  "data": [
    {"compound": "CCC(C)C(=O)C1=C(O)C(C)C(C)OC1=O", "note": "(stereo unspecified)", "values": [
      {"measurement": "Activity", "result": "inactive"}
    ]}
  ]
}
